Measurements taken from paper PMC12058896, “Potent antimicrobial activity of hydrogel loaded with the antimicrobial peptide, D-Bac8c^2,5 Leu, against monospecies and polymicrobial biofilms of Staphylococcus aureus and Pseudomonas aeruginosa” (Frontiers in Microbiology, 2025).
Non-standard residues stand in square brackets, D forms with d. Residues, ends and D or L forms follow the SMILES beside them.

Tests used:
[1] = tested on: monospecies and polymicrobial biofilms of Staphylococcus aureus and Pseudomonas aeruginosa; experiment: Static biofilm assays; assay type: cell-based
Experimental: Biofilms were formed under static conditions using flat 96-well polystyrene plates as described previously with few modifications ([[…] al., 2018]). Briefly, overnight cultures in BHI were washed and diluted 1:200 in fresh Bolton Broth media supplemented with 50% bovine heparin plasma, and 5% laked horse blood. From this suspension, 100 μL was used to inoculate the microtiter plate wells prior to static incubation at 37°C for 24 h, 3 days and 5 days. The media in each well was changed daily during prolonged incubation periods (3 and 5 days). […] After incubation with D-Bac8c^2,5 Leu, biofilms were washed twice with PBS and biofilm assessment was performed. For the polymicrobial biofilms, a bacterial solution ratio 1:1 of S. aureus and P. aeruginosa at 1 × 10^5 CFU/mL each was used to inoculate the wells. In each assay, inoculated medium without antimicrobials and uninoculated medium served as growth and sterility controls, respectively. […] Viability of biofilm cells after treatment was measured using resazurin-conversion assay as previously described ([Hogan et al., 2016]) (Sigma-Aldrich, Ireland). […] Fluorescence intensity was detected at excitation of 544 nm and emission of 590 nm using a fluorimeter, Perkin Elmer 2030 Multilabeled Reader, Victor 3X. […] After overnight incubation at 37°C, CFU were counted and results were expressed as log10CFU/mL.

[2] = tested on: monospecies and polymicrobial biofilms of S. aureus and P. aeruginosa; experiment: Duckworth biofilm flow device (dynamic biofilm); assay type: cell-based; details: biofilms grown 1 and 5 days under shear flow in SWF; 256 μg/mL for 6 h
Experimental: The Duckworth biofilm flow device was set-up and run following the method described by [Duckworth et al. (2018)]. Twelve disks of agar at 1.5% (w/v) concentration were cut using a 10 mm French press punch and placed into designated wells in the flow device. Cellulose filter (13 mm, 0.22 μm, Merck Millipore, Ireland) was placed on top of each agar disk, and was inoculated with 10 μL of the bacterial inoculum. The device was placed in an incubator at 37°C while a continuous flow of SWF was pumped into the device at a flow rate of 0.322 mL/min for 24 h or 5 days using a peristaltic pump (Supplementary Figure S2). Subsequently, topical treatment with D-Bac8c^2,5 Leu was introduced and allowed to run for a further 6 h. The biofilm formed on the cellulose filters were collected and suspended in 1 mL PBS. Colony counting was performed as described above. The Duckworth biofilm flow device was prepared and run as described above with slight modification. A solution of agarose dissolved in SWF (0.3 g in 20 mL), mixed with bacterial cultures at 10^8 CFU/mL and then supplemented with 3% FBS and 0.15% collagen (Merck, Ireland) was allowed to solidify at room temperature and then 12 disks of that was cut using a 10 mm French press punch. The disks were then placed into designated wells and experiments run as previously described. […]

human red blood cells = assay type: cell-based
Experimental: Potential haemolytic activity of the peptide was determined using fresh human erythrocytes from healthy donors based on the method described by [Cantisani et al. (2013)]. Human blood was drawn [ethylenediaminetetraacetic acid (EDTA); 1.6 mg/mL], and red blood cells (RBCs) were separated by centrifugation at 1000 x g for 5 min at 18°C. Upon 3 washes with PBS, the RBCs were further diluted 2-fold (v/v) into PBS. D-Bac8c^2,5 Leu was added to erythrocyte suspension at a final concentration ranging from 3.125 to 200 μg/mL in a final volume of 100 μL. Samples were incubated at 37°C for 24 h. The level of haemolysis was assessed by measuring the absorbance of supernatant at 490 nm. Triton-X-100 was used as a positive control for haemolysis.

[3] = tested on: pro-inflammatory cytokines; details: cited from earlier work
IL-8 = details: ref Zapotoczna et al. (2017); cited from earlier work
Description: (§1) Similarly, here we verified that D-Bac8c^2,5 Leu has low toxicity to human monocytes THP-1.

TNFα = details: ref Zapotoczna et al. (2017); cited from earlier work
Description: as §1

CC(C)C[C@@H](NC(=O)[C@H](N)CCCNC(=N)N)C(=O)N[C@H](Cc1c[nH]c2ccccc12)C(=O)N[C@@H](C(=O)N[C@H](CC(C)C)C(=O)N[C@H](Cc1c[nH]c2ccccc12)C(=O)N[C@H](CCCNC(=N)N)C(=O)N[C@H](CCCNC(=N)N)C(N)=O)C(C)C [D-Bac8c^2,5 Leu] (H-[dR][dL][dW][dV][dL][dW][dR][dR]-NH2; N-terminus assumed)
reduction in bacterial load compared to untreated controls ([1]; static biofilm assays, summed up in abstract): 2–3 log | minimum concentration needed to inactivate biofilms ([1]; static biofilms, 6 h treatment (Figures 1, 2 and Table 3)): 64 µg/mL | reduction in viability [2]: ≤ 3 log | haemolytic activities (human red blood cells): negligible | release of pro-inflammatory cytokines in human blood [3]: did not induce | biofilm-induced increase in IL-8 levels (IL-8): inhibited | effect on TNFα (TNFα): without affecting
